{"source": "patent US8835447B2", "about": "“Method for treating androgen receptor positive cancers” (priority 2009, dated 2014)", "key": {"CWR22R tumors": {"system": "CWR22R tumors", "assay": "CWR22R xenograft model in nude mice", "format": "in vivo, mouse", "conditions": "for CWR22R tumor growth: five daily i.v. injections, c52 at 18 mg/kg/day", "source_text": "FIGS. 6A and 6B provide data showing anti-tumor activity of the selected hits in mouse models of androgen-independent PCa. FIG. 6A provides a graphical representation of data obtained from i.p. injection of the listed compounds or DMSO vehicle into nude mice carrying subcutaneous (s.c.) C4-2 tumors. Six daily injections were given starting when tumors were around 100 mm3 in size. There were 4-5 mice per group with two tumors per mouse. Asterisks (*) and number signs (#) are placed under the means of measurement in the c6 and c11 groups respectively which are statistically different from the control group by ANOVA test (>99%) B. C52 (9 mg/kg or 18 mg/kg) or DMSO vehicle was injected into the tail vein of nude mice carrying s.c. CWR22R tumors. Five daily injections were given starting when tumors were around 40 mm3 in size. There were 10 mice per group with one tumor per mouse. Asterisks (*) are placed under the means of measurement which are statistically different from the control group by ANOVA test (>99%). Error bars in both FIGS. 6A and B—standard deviation between the size of tumors within a given treatment group.\nTesting of the anti-tumor effect of compounds in mice was done according to an IACUC-approved protocol in 8 week old male athymic nude mice from Harlan (Indianapolis, Ind.). For the C4-2 xenograft model, 10^6 C4-2 cells were injected subcutaneously (s.c.) in 2 sites of each mouse in 50% matrigel (BD Biosciences, Bradford, Mass.) in PBS. Upon development of visible tumors, they were measured using digital caliper. Tumor volume was calculated according to the formula: […]. Mice were injected with compounds i.p. daily for 6 days starting on the day when at least one tumor per mouse reached 100 mm^3 in size. Five mice per group were used. For the CWR22R xenograft model, CWR22R cells were inoculated (10^5 cells per inoculum) in 50% matrigel, one site per mouse. Treatment was started when the tumor grew to a size of at least 25 mm^3. Compounds were diluted in captisol (CyDex, Lenexa, Kans.) and delivered intravenously (to reduce “first pass” liver effect) once a day for 5 days. Ten mice per group were used. Mice were monitored daily and tumors were measured every other day. Mice were euthanized according to institutional regulations when the size of tumor reached 1000 mm^3. Comparison of the tumor growth in control and treated mice was done using ANOVA test.\nARTIK compounds, c52 and c85, were also tested in the CWR22R model."}, "[1]": {"system": "AR protein in CWR22R cells", "assay": "Western blot of AR protein levels", "format": "cell-based, human", "conditions": "10 mM of hits for 36 hrs", "experimental": "FIGS. 3A-3D depict data showing a that reduction of AR protein levels is associated with toxicity of the selected AR inhibitor hits to PCa cells. […] is a photographic representation of Western blotting of lysates from CWR22R cells treated with […] of the indicated hits for 36 hrs. […] GAPDH antibody was used to control for protein loading. FIG. 3B provides a graphical representation of data showing that, unlike parental CWR22R cells, a clone selected in the presence of c52 (c52R) is resistant to the effects of c52. AR protein expression in the c52R clone of CWR22R is not reduced by c52 treatment. Western blotting of parental and c52-resistant CWR22R cells with or without c52 treatment (10 μM for 36 hrs). FIG. 3C provides a graphical representation of data from analyzing cell viability by methylene blue staining 4 days after compound addition. Error bars—standard deviation between triplicates within experiment. FIG. 3D provides a graphical representation of data showing effects of the selected compounds on cell cycle distribution of CWR22R cells measured by propidium iodide staining of cellular DNA content by fluorescent activated cell sorting. Assay was done twice. Error bars—deviation between two measurements.\nWestern blot analysis. […] Total protein concentration was determined using Dc Protein Assay (BioRad, Hercules, Calif.). […]"}, "NIH Swiss mice": {"system": "NIH Swiss mice", "assay": "Compound safety in mice, dose escalation", "format": "in vivo", "conditions": "three i.p. injections 20x, 50x, 100xIC50 in 3 day intervals", "experimental": "Testing of compound safety in mice was done according to an IACUC-approved protocol. The experiment was performed using outbred 8 week old NIH Swiss male mice from Harlan (Indianapolis, Ind.), 4 mice per group. IC50 concentrations were used to calculate in vivo doses based on mouse weight (IC50 in vivo dose equivalent in mg/kg=IC50 in mg/ml×1000, based on the assumption that 1 g of mouse tissues have an approximate volume of 1 ml). The compounds were injected intraperitoneally (i.p.) in 25% DMSO-75% PBS starting from 20×IC50 equivalent of in vitro cytotoxic dose of compounds. […]. The control group of mice received 3 injections of 25% DMSO-75% PBS in intervals of three days. Blood biochemistry analysis was performed by BioReliance (Rockville, Md.).\nFive hit compounds, representing both the ARTIS and ARTIK categories (c6, c11, c17, c52 and c85), were selected for in vivo tests based on all of the previous assays. Compound c5 was rejected due to very low microsomal stability (<5% after 1 hour incubation with rat microsomes). The toxicity of the compounds was evaluated in a dose escalation assay in which male NIH Swiss mice (n=4) received three sequential intraperitoneal (i.p.) injections of each compound delivered in 3 day intervals. […]. On the day after the last injection, half of the mice in each group were sacrificed for gross pathology examination and collection of blood for serum biochemistry assays, which include total protein, glucose, bilirubin, and creatinine levels, activity of liver enzymes, and ion concentrations. The remaining mice were sacrificed and evaluated similarly 7 days after the last compound injection. […] A minor decrease in serum glucose concentration (70-80% of control) was observed on the day after the last compound injection in almost all mice, but glucose levels were normal a week later (data not shown). Low serum glucose level might reflect of a weak transient GR-inhibitory effect of the selected compounds."}}}
{"smiles": "CCCn1c2ccccc2c2cc(C(C)=O)ccc21", "note": "[c52]", "values": [{"measurement": "mice in which tumors completely disappeared", "setting": "CWR22R tumors; among 10 mice, 18 mg/kg/day", "result": 2, "unit": "mice"}, {"measurement": "mice in which tumors did not grow in size", "setting": "CWR22R tumors; among 10 mice, 18 mg/kg/day", "result": 5, "unit": "mice"}, {"measurement": "mice in which tumors regressed", "setting": "CWR22R tumors; among 10 mice, 18 mg/kg/day", "result": 1, "unit": "mouse"}, {"measurement": "adverse side effects", "setting": "CWR22R tumors; c52 18 mg/kg/day i.v., 5 days", "result": "without any noticeable adverse side effects"}, {"measurement": "CWR22R tumor growth", "setting": "CWR22R tumors; 18 mg/kg/day", "result": "suppressed growth"}, {"measurement": "CWR22R tumor growth", "setting": "CWR22R tumors; listed as C52, 18 mg/kg/day", "result": "effective"}, {"measurement": "AR protein level in CWR22R cells", "setting": "[1]", "result": "complete disappearance of AR protein"}, {"measurement": "toxicity in mice (visual inspection, gross pathology)", "setting": "NIH Swiss mice", "result": "generally non-toxic"}]}
